Marks after values point to notes of the source that are not given here.
Experiments:
PPARγ = biological target: T1, PPARγ (Homo sapiens, UniProt P37231); experiment: PPARγ agonist activity, GAL4-PPARγ chimera / 4×UASg-luc luciferase reporter assay in CV-1 cells; conditions: for Relative activity (n=3): untreated control = 100
T1 sequence (P37231 204-505): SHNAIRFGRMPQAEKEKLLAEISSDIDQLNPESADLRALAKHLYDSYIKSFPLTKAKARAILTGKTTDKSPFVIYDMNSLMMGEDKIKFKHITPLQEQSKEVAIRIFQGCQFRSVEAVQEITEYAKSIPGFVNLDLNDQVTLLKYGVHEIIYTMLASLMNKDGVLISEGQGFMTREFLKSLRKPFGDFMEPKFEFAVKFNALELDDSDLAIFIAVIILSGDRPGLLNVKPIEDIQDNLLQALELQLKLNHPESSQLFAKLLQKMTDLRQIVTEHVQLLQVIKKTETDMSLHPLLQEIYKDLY
Method: Moreover, untreated control groups were established by exchanging with a culture medium prepared by diluting only DMSO with DMEM containing 10% activated-charcoal-treated bovine fetal serum. […] One day after the culture medium exchange, the culture medium was removed, the cells were washed with phosphate buffered saline (PBS), a cell solution was prepared using PicaGene cell solution Luc (made by Toyo Ink), 20µl of the cell solution was reacted with 100µl of a PicaGene luminescent substrate (made by Toyo Ink), and the luciferase activity was measured using a luminometer (Berthold Lumat LB9501) with the measurement time set to 10 seconds.
Letting the ratio of the measurement group (the group for which pM-PPAR and 4×UASg-luc were transfected) to the control group (the group for which pM and 4×UASg-luc were transfected) in the case of the untreated control groups be (a), and the ratio of the measurement group to the control group in the case of the ligand-reagent-added groups be (b), the PPARγ agonist activity caused by the ligand reagent was evaluated using the ratio (b)/(a). To avoid errors due to differences in the transfection efficiency between experiments, TZD (1µm) was put in as positive control groups and the values between the experiments were corrected.

mice = experiment: Preliminary tests of CLA added to feed (liver enlargement, food intake); assay type: in vivo; conditions: 1wt% or more of CLA added to the feed
C57BL/6J mice [1] = experiment: Lipid metabolism amelioration: plasma lipid concentrations in obese mice (Example 4); assay type: in vivo; conditions: after 16 hours without feed, 3 weeks test feed, 7wt% test oil (CLA 0.5wt%), soybean oil group = 100
Excerpt: 10-week old female C57BL/6J mice (from Clea Japan) were made obese by keeping for 3 weeks on a high-fat, high-sugar feed (made by Oriental Yeast) having the composition shown in Table 4. The mice were then divided into groups of 8, and were kept for a further 3 weeks on a test feed consisting of a fat-free growth-period-use standard mixed feed (AIN-93G, made by Oriental Yeast) with 2wt% soybean oil as an essential fatty acid source and either 7wt% of a test oil or 7wt% of a control oil added. After 3 weeks, the mice were fed for the last time and then not fed for 16 hours, after which the whole blood was collected from the mice using a heparinized syringe under ether anesthesia, and then the mice were dissected, with the adipose tissue around the kidneys, the adipose tissue around the ovaries, the liver, the kidneys and the spleen being extracted, and the weights thereof being measured. Each organ weight thus obtained was divided by the body weight to obtain the ratio of the organ weight to the body weight. The adipose tissue around the kidneys and the adipose tissue around the ovaries was evaluated as visceral adipose tissue. The collected blood was centrifuged for 15 minutes at 3000 rpm while cooling to obtain the plasma, and then the total cholesterol concentration was measured using Cholesterol C Test Wako (made by Wako Pure Chemical Industries), the neutral lipid concentration using Triglyceride G Test Wako (made by Wako Pure Chemical Industries), and the free fatty acid concentration using NEFA C Test Wako (made by Wako Pure Chemical Industries). The groups set up were a test group for which pomegranate seed oil prepared as in Example 1 was added to the feed (pomegranate seed oil group), a control group for which soybean oil was added to the feed (soybean oil group), and a comparative group for which high-DHA-containing fish oil (DHA content 20wt%, made by Harima Chemicals), which is known to have obesity ameliorating effects, was added to the feed (fish oil group). […]

C57BL/6J mice [2] = experiment: Visceral fat reduction: tissue weights in mice made obese on high-fat, high-sugar feed (Example 4); assay type: in vivo; conditions: obese female C57BL/6J mice, 3 weeks test feed, 7wt% test oil (CLA group: 0.5wt% CLA + 6.5wt% soybean oil)
Method: The visceral fat reduction effects or visceral fat accumulation suppression effects of the PPAR agonist and oil/fat composition of the present invention are evaluated by administering the candidate compound to a laboratory animal for a specific time period (e.g. 4 weeks), and then measuring the amount of visceral fat in the adipose tissue around the testes, the adipose tissue around the kidneys and the like.
10-week old female C57BL/6J mice (from Clea Japan) were made obese by keeping for 3 weeks on a high-fat, high-sugar feed (made by Oriental Yeast) having the composition shown in Table 4. The mice were then divided into groups of 8, and were kept for a further 3 weeks on a test feed consisting of a fat-free growth-period-use standard mixed feed (AIN-93G, made by Oriental Yeast) with 2wt% soybean oil as an essential fatty acid source and either 7wt% of a test oil or 7wt% of a control oil added. After 3 weeks, the mice were fed for the last time and then not fed for 16 hours, after which the whole blood was collected from the mice using a heparinized syringe under ether anesthesia, and then the mice were dissected, with the adipose tissue around the kidneys, the adipose tissue around the ovaries, the liver, the kidneys and the spleen being extracted, and the weights thereof being measured. Each organ weight thus obtained was divided by the body weight to obtain the ratio of the organ weight to the body weight. The adipose tissue around the kidneys and the adipose tissue around the ovaries was evaluated as visceral adipose tissue. The collected blood was centrifuged for 15 minutes at 3000 rpm while cooling to obtain the plasma, and then the total cholesterol concentration was measured using Cholesterol C Test Wako (made by Wako Pure Chemical Industries), the neutral lipid concentration using Triglyceride G Test Wako (made by Wako Pure Chemical Industries), and the free fatty acid concentration using NEFA C Test Wako (made by Wako Pure Chemical Industries). The groups set up were a test group for which pomegranate seed oil prepared as in Example 1 was added to the feed (pomegranate seed oil group), a control group for which soybean oil was added to the feed (soybean oil group), and a comparative group for which high-DHA-containing fish oil (DHA content 20wt%, made by Harima Chemicals), which is known to have obesity ameliorating effects, was added to the feed (fish oil group). Also set up was a group for which 6.5wt% of soybean oil and 0.5wt% of CLA (made by Kenko Tsusho, 70% purity) was added to the feed (CLA group). […] Moreover, also set up was a group that were fed a standard feed containing 9wt% of soybean oil throughout the test period right from the start (standard feed group, n=3). During the test period, the mice were allowed to drink water freely, but feeding was limited such that the intake was the same as for the soybean oil group.

Relative activity (mean, n=3) (PPARγ; 20µM final fatty acid concentration, untreated control group = 100): 125
Relative activity (n=3) (PPARγ; concentration 3 (µm [sic]), 3 µM): 129
Relative activity (n=3) (PPARγ; concentration 9 (µm [sic]), 9 µM): 109
Relative activity (n=3) (PPARγ; concentration 30 (µm [sic]), 30 µM): 110
Relative activity (n=3) (PPARγ; concentration 90 (µm [sic]), 90 µM): 159
Relative activity (n=3) (PPARγ; concentration 300 (µm [sic]), 300 µM): 323
food intake (mice): drop in the mice's food intake
liver enlargement (mice): 1.4 times relative to a control
Substance: conjugated linoleic acid [CLA]
Relative blood lipid concentration (mean, n=8): Free fatty acids (C57BL/6J mice [1]): 71* % of soybean oil group
Relative blood lipid concentration (mean, n=8): Neutral lipids (C57BL/6J mice [1]): 100 mg/dL
Relative blood lipid concentration (mean, n=8): Total cholesterol (C57BL/6J mice [1]): 89 mg/dL
Ratio of tissue weight to body weight (mean, n=8): Fat around kidneys (C57BL/6J mice [2]; soybean oil group 0.304): 0.240
Ratio of tissue weight to body weight (mean, n=8): Spleen (C57BL/6J mice [2]; soybean oil group 0.391): 0.450
Ratio of tissue weight to body weight (mean, n=8): Fat around ovaries (C57BL/6J mice [2]; soybean oil group 0.839): 0.650
Ratio of tissue weight to body weight (mean, n=8): Kidneys (C57BL/6J mice [2]; soybean oil group 1.128): 1.280
Ratio of tissue weight to body weight (mean, n=8): Visceral fat (C57BL/6J mice [2]; soybean oil group 1.144): 0.890
Ratio of tissue weight to body weight (mean, n=8): Liver (C57BL/6J mice [2]; soybean oil group 4.454): 4.920

Reference: EP1175901A1, “PEROXISOME ACTIVATOR-RESPONSIVE RECEPTOR AGONISTS” (Kaneka Corporation, priority 1999, dated 2000)
